PMC2229521 (The Journal of General Physiology, 2002)

Assays:
[1] = target: human adult nAChRs expressed in HEK 293 cells (Homo sapiens, UniProt P02708+P11230+Q04844+Q07001); type: binding; conditions: P = 0.64 by one-way ANOVA
[2] = target: neuronal nAChR ACh recognition sites; conditions: ref Perry et al., 1988; Hunter et al., 1989; cited from earlier work

Chain of human adult nAChRs expressed in HEK 293 cells (P02708 21-457): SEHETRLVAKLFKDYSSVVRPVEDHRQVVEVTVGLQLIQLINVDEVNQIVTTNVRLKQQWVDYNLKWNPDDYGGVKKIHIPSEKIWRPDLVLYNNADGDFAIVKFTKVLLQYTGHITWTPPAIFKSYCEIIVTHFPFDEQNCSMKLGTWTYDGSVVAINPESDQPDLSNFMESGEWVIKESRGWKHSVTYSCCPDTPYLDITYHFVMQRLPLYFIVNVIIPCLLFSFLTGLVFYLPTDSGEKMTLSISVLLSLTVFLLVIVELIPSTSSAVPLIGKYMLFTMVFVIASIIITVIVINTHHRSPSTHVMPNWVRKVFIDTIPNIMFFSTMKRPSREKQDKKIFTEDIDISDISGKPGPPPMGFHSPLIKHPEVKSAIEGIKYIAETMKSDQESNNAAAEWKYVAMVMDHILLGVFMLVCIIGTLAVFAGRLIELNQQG
Chain of human adult nAChRs expressed in HEK 293 cells (P11230 24-501): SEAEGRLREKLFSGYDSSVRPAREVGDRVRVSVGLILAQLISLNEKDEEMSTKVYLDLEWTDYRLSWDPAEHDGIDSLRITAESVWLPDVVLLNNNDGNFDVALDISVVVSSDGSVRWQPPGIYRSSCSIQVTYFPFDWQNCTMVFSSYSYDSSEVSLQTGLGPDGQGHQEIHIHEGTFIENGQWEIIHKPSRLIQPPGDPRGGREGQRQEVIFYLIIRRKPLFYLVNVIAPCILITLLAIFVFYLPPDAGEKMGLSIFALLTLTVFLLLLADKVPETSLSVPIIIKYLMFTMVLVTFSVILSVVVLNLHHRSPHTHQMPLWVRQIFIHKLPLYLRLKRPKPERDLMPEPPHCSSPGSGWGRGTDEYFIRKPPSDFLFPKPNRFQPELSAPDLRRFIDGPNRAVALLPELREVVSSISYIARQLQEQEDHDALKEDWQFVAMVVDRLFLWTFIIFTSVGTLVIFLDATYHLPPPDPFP
Chain of human adult nAChRs expressed in HEK 293 cells (Q07001 22-517): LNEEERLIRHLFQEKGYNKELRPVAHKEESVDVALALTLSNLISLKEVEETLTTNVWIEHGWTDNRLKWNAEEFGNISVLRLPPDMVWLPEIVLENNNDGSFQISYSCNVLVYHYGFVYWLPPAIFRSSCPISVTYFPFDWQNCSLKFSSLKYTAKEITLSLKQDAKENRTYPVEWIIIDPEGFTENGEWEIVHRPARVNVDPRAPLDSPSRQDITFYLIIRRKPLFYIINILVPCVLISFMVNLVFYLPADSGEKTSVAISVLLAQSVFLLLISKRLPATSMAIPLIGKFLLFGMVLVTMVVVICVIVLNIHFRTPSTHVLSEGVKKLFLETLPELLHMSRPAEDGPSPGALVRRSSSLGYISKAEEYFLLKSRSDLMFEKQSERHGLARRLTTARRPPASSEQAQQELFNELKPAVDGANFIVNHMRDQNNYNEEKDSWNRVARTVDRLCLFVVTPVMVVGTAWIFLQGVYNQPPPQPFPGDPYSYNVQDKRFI
Chain of human adult nAChRs expressed in HEK 293 cells (Q04844 21-493): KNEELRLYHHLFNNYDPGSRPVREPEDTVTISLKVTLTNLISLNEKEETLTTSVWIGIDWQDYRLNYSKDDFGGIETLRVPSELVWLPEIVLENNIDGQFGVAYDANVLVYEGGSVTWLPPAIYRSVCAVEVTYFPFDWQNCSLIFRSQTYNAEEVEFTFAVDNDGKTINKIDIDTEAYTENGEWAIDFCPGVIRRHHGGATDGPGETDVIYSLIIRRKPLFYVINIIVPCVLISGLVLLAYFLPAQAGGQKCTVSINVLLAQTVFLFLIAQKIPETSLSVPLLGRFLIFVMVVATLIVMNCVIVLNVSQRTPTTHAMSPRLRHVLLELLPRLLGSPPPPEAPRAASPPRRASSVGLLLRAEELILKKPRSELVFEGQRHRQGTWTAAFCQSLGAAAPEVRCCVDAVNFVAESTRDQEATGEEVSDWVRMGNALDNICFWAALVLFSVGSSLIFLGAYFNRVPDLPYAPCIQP

| Compound | difference in log IC 50 values in the presence of varying concentrations of tacrine [1] | Kd values, competitive binding [2] |
| --- | --- | --- |
| C[N+](C)(C)CCOC(N)=O.[Cl-] [carbamylcholine] | No difference | – |
| Nc1c2c(nc3ccccc13)CCCC2 [tacrine, 9-amino-1,2,3,4-tetrahydroacridine] | – | low micromolar range |
